Measured values reported in patent US9394250B2, “Substituted pyrrolidines as factor xia inhibitors for the treatment thromboembolic diseases” (ONO PHARMACEUTICAL CO., LTD., priority 2012, dated 2016).
Where a name gives a salt, the structure may show the parent alone.

How the values were obtained:
Type in all cases: biochemical
human thrombin = human thrombin (Homo sapiens (Human), UniProt P00734); experiment: Thrombin enzyme activity, chromogenic substrate S-2366; conditions: human thrombin 0.12 U/mL, 300 μM S-2366, pH7.4; read-out: In vitro Thrombin inhibitory activity IC50
Experimental: (§1) Inhibitory activities of compounds of the present invention against factor XIa, Xa, XIIa, IXa, VIIa, plasma kallikrein or thrombin were evaluated using appropriate purified proteases and synthetic substrates. The rate of hydrolysis of the chromogenic substrate by the relevant protease was continuously measured at 405 nm. Inhibitory activity against each enzyme was calculated as % inhibition using the equation described below. % Inhibition=[[(rate without compound)−(rate with compound)]/(rate without compound)]×100%. Each half maximal inhibitory concentration (IC50) value was determined by plotting the concentration of compound of the invention against the % inhibition. (1-1) Factor XIa Enzyme Activity
(§2) Human Factor Xa (American Diagnostica Inc.) and human thrombin (Sigma) activities were measured at the enzyme concentrations of 0.18 U/mL and 0.12 U/mL, respectively in the same buffer containing 150 mM NaCl, 2 mg/mL PEG6000, 50 mM Tris-HCl (pH7.4), except that the reactions were started with 300 μM S-2222 ([…], Chromogenix) and 300 μM S-2366, respectively.

Human Factor Xa = Human Factor Xa (Homo sapiens (Human), UniProt P00742); experiment: Factor Xa enzyme activity, chromogenic substrate S-2222; conditions: human Factor Xa 0.18 U/mL, 300 μM S-2222, pH7.4; read-out: In vitro FXa inhibitory activity IC50
Experimental: as §1, §2

Human Factor XIa = Human Factor XIa (Homo sapiens (Human), UniProt P03951); experiment: Factor XIa enzyme activity, chromogenic substrate S-2366; conditions: purified human Factor XIa 0.1 U/mL, 300 μM S-2366, pH7.4; read-out: In vitro FXIa inhibitory activity IC50
Experimental: as §1
Human Factor XIa (Haematologic Technologies Inc.) activity was measured at an enzyme concentration of 0.1 U/mL in 150 mM NaCl, 5 mM KCl, 1 mg/mL PEG6000, 50 mM HEPES-NaOH (pH7.4) with 300 μM S-2366 (pyroGlu-Pro-Arg-pNA, Chromogenix).

Human Factor Xa, sequence (P00742 235-488): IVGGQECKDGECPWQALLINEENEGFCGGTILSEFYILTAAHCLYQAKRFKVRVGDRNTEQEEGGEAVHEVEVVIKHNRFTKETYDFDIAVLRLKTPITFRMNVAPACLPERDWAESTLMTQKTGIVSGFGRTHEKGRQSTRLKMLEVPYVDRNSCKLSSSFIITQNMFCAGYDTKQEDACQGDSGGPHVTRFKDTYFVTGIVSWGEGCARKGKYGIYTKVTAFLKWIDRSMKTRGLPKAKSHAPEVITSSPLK
Human Factor Xa, sequence (P00742 41-179 partner): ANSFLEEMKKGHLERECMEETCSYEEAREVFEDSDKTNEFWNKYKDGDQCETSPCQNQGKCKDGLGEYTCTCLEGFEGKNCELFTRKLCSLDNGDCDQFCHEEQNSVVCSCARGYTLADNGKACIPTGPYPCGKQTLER
Human Factor XIa, sequence (P03951 388-625): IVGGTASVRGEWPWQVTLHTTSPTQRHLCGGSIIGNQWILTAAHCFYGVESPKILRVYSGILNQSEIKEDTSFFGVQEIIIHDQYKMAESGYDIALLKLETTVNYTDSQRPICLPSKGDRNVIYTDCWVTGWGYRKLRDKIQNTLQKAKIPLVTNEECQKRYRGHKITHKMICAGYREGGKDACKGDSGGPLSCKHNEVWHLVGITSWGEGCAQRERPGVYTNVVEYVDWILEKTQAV
Human Factor XIa, sequence (P03951 19-387 partner): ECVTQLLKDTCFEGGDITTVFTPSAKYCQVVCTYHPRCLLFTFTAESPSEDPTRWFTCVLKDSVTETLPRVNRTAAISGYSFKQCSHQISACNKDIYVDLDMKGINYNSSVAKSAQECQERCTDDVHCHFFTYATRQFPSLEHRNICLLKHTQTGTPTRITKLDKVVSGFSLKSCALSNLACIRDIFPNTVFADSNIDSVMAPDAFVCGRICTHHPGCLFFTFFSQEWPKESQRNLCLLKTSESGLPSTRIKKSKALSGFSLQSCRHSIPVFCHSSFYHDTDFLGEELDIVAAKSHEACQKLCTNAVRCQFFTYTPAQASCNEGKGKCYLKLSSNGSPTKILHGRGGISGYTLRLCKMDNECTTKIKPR

IC50 (human thrombin) | IC50 (Human Factor Xa) | IC50 (Human Factor XIa) | SMILES
> 100 µM | > 100 µM | 0.013 µM | O=C(O)c1ccc(NC(=O)[C@@H]2C[C@H](N3CCOCC3)CN2C(=O)/C=C/c2cc(Cl)ccc2-n2cnnn2)cc1 [Example 37, 4-({[(2S,4S)-1-{(2E)-3-[5-chloro-2-(1H-tetrazol-1-yl)phenyl]-2-propenoyl}-4-(4-morpholinyl)-2-pyrrolidinyl]carbonyl}amino)benzoic acid trifluoroacetate]
> 100 µM | > 100 µM | 0.014 µM | NC[C@H]1CC[C@H](C(=O)N2C[C@@H](N3CCN(S(=O)(=O)C4CC4)CC3)C[C@H]2C(=O)Nc2ccc(C(=O)O)cc2)CC1 [Example 55, 4-[({(2S,4S)-1-{[trans-4-(aminomethyl)cyclohexyl]carbonyl}-4-[4-(cyclopropylsulfonyl)-1-piperazinyl]-2-pyrrolidinyl}carbonyl)amino]benzoic acid bis(trifluoroacetate)]
37 µM | > 100 µM | 0.0044 µM | COC(=O)Nc1ccc(-c2cnc([C@@H]3C[C@H](C4CCN(S(C)(=O)=O)CC4)CN3C(=O)c3ccc(C(=N)N)cc3)[nH]2)cc1 [Example 73, methyl [4-(2-{(2S,4R)-1-(4-carbamimidoylbenzoyl)-4-[1-(methylsulfonyl)-4-piperidinyl]-2-pyrrolidinyl}-1H-imidazol-5-yl)phenyl]carbamate dihydrochloride]
40 µM | > 100 µM | 0.0065 µM | COC(=O)Nc1ccc(-c2[nH]c([C@@H]3C[C@H](C4CCN(S(C)(=O)=O)CC4)CN3C(=O)c3ccc(NC(=N)N)cc3)nc2Cl)cc1 [Example 79, methyl [4-(2-{(2S,4R)-1-(4-carbamimidamidobenzoyl)-4-[1-(methylsulfonyl)-4-piperidinyl]-2-pyrrolidinyl}-4-chloro-1H-imidazol-5-yl)phenyl]carbamate bis(trifluoroacetate)]
57 µM | > 100 µM | 0.0054 µM | COC(=O)Nc1ccc(-c2[nH]c([C@@H]3C[C@H](C4CCN(S(C)(=O)=O)CC4)CN3C(=O)N3CCN(C(=N)N)CC3)nc2Cl)cc1 [Example 88, methyl [4-(2-{(2S,4R)-1-[(4-carbamimidoyl-1-piperazinyl)carbonyl]-4-[1-(methylsulfonyl)-4-piperidinyl]-2-pyrrolidinyl}-4-chloro-1H-imidazol-5-yl)phenyl]carbamate bis(trifluoroacetate)]
> 100 µM | > 100 µM | 0.018 µM | Cn1cc(Cl)c2c(F)c(C(=O)N3C[C@@H](C4CCN(S(C)(=O)=O)CC4)C[C@H]3C(=O)Nc3ccc(C(=O)O)cc3)ccc21 [Example 93, 4-[({(2S,4R)-1-[(3-chloro-4-fluoro-1-methyl-1H-indol-5-yl)carbonyl]-4-[1-(methylsulfonyl)-4-piperidinyl]-2-pyrrolidinyl}carbonyl)amino]benzoic acid]
> 33 µM | > 33 µM | 0.0054 µM | COC(=O)Nc1ccc(-c2[nH]c([C@@H]3C[C@H](C4CCN(S(C)(=O)=O)CC4)CN3C(=O)/C=C/c3cc(Cl)ccc3-n3cnnn3)nc2Cl)cc1 [Example 94, methyl [4-(4-chloro-2-{(2S,4R)-1-{(2E)-3-[5-chloro-2-(1H-tetraol-1-yl)phenyl]-2-propenoyl}-4-[1-(methylsulfonyl)-4-piperidinyl]-2-pyrrolidinyl}-1H-imidazol-5-yl)phenyl]carbamate]
> 100 µM | > 100 µM | 0.0042 µM | COC(=O)Nc1ccc(-c2[nH]c([C@@H]3C[C@H](C4CCN(S(C)(=O)=O)CC4)CN3C(=O)[C@H]3CC[C@H](CN)CC3)nc2Cl)cc1 [Example 96, methyl [4-(2-{(2S,4R)-1-{[4-(aminomethyl)cyclohexyl]carbonyl}-4-[1-(methylsulfonyl)-4-piperidinyl]-2-pyrrolidinyl}-4-chloro-1H-imidazol-5-yl)phenyl]carbamate bis(trifluoroacetate)]
> 100 µM | > 100 µM | 0.0023 µM | COC(=O)Nc1ccc(-c2cnc([C@@H]3C[C@H](N4CCN(S(C)(=O)=O)CC4)CN3C(=O)C3CCN(C(=N)N)CC3)[nH]2)cc1 [Example 98, methyl [4-(2-(2S,4S)-1-[(1-carbamimidoyl-4-piperidinyl)carbonyl]-4-[4-(methylsulfonyl)-1-piperazinyl]-2-pyrrolidinyl-1H-imidazol-5-yl)phenyl]carbamate trihydrochloride]
> 100 µM | – | 0.0085 µM | CS(=O)(=O)N1CCC([C@H]2C[C@@H](C(=O)Nc3ccc(C(=O)O)cc3)N(C(=O)c3ccc(C(=N)N)cc3)C2)CC1 [Example 111, 4-[({(2S,4R)-1-(4-carbamimidoylbenzoyl-4-[1-(methylsulfonyl)-4-piperidinyl]-2-pyrrolidinyl}carbonyl)amino]benzoic acid hydrochloride]

SMILES | IC50 (human thrombin) | IC50 (Human Factor Xa) | IC50 (Human Factor XIa)
CS(=O)(=O)N1CCN([C@H]2C[C@@H](C(=O)Nc3ccc(C(=O)O)cc3)N(C(=O)C3CCN(C(=N)N)CC3)C2)CC1 [Example 9, 4-[({(2S,4S)-1-[(1-carbamimidoyl-4-piperidinyl)carbonyl]-4-[4-(methylsulfonyl)-1-piperazinyl]-2-pyrrolidinyl}carbonyl)amino]benzoic acid bis(trifluoroacetate)] | > 100 µM | > 100 µM | 0.017 µM
CS(=O)(=O)N1CCN([C@H]2C[C@@H](C(=O)Nc3ccc(C(=O)O)cc3)N(C(=O)c3ccc(C(=N)N)cc3)C2)CC1 [Example 20, 4-[({(2S,4S)-1-(4-carbamimidoylbenzoyl)-4-[4-(methylsulfonyl)-1-piperazinyl]-2-pyrrolidinyl}carbonyl)amino]benzoic acid bis(trifluoroacetate)] | > 100 µM | > 100 µM | 0.0032 µM
O=C(Nc1ccccc1)[C@@H]1C[C@H](N2CCN(S(=O)(=O)c3ccccc3)CC2)CN1C(=O)/C=C/c1cc(Cl)ccc1-n1cnnn1 [Example 39, (2S,4S)-1-{(2E)-3-[5-chloro-2-(1H-tetrazol-1-yl)phenyl]-2-propenoyl}-N-phenyl-4-[4-(phenylsulfonyl)-1-piperazinyl]-2-pyrrolidinecarboxamide] | > 100 µM | > 100 µM | 0.078 µM
O=C(Nc1ccc2nn[nH]c2c1)[C@@H]1C[C@H](N2CCOCC2)CN1C(=O)/C=C/c1cc(Cl)ccc1-n1cnnn1 [Example 43, (2S,4S)—N-(1H-benzotriazol-6-yl)-1-{(2E)-3-[5-chloro-2-(1H-tetrazol-1-yl)phenyl]-2-propenoyl}-4-(4-morpholinyl)-2-pyrrolidinecarboxamide trifluoroacetate] | > 100 µM | > 100 µM | 0.011 µM
C[C@H]1CN([C@H]2C[C@@H](C(=O)Nc3ccccc3)N(C(=O)/C=C/c3cc(Cl)ccc3-n3cnnn3)C2)CCN1S(N)(=O)=O [Example 57, (2S,4S)-1-{(2E)-3-[5-chloro-2-(1H-tetrazol-1-yl)phenyl]-2-propenoyl}-4-[(3S)-3-methyl-4-sulfamoyl-1-piperazinyl]-N-phenyl-2-pyrrolidinecarboxamide trifluoroacetate] | > 100 µM | > 100 µM | 0.027 µM
COC(=O)Nc1ccc(-c2cnc([C@@H]3C[C@H](C4CCN(S(C)(=O)=O)CC4)CN3C(=O)C3CCN(C(=N)N)CC3)[nH]2)cc1 [Example 69, methyl [4-(2-{(2S,4R)-1-[(1-carbamimidoyl-4-piperidinyl)carbonyl]-4-[1-(methylsulfonyl)-4-piperidinyl]-2-pyrrolidinyl}-1H-imidazol-5-yl)phenyl]carbamate dihydrochloride] | > 100 µM | > 100 µM | 0.0074 µM
COC(=O)Nc1ccc(-c2[nH]c([C@@H]3C[C@H](C4CCN(S(C)(=O)=O)CC4)CN3C(=O)C3CCN(C(=N)N)CC3)nc2Cl)cc1 [Example 71, methyl [4-(2-{(2S,4R)-1-[(1-carbamimidoyl-4-piperidinyl)carbonyl]-4-[1-(methylsulfonyl)-4-piperidinyl]-2-pyrrolidinyl}-4-chloro-1H-imidazol-5-yl)phenyl]carbamate dihydrochloride] | 94 µM | > 100 µM | 0.0022 µM
COC(=O)Nc1ccc(-c2[nH]c([C@@H]3C[C@H](C4CCN(S(C)(=O)=O)CC4)CN3C(=O)[C@H]3CC[C@H]([C@H](C)N)CC3)nc2Cl)cc1 [Example 86, methyl [4-(2-{(2S,4R)-1-({trans-4-[(1S)-1-aminoethyl]cyclohexyl}carbonyl)-4-[1-(methylsulfonyl)-4-piperidinyl]-2-pyrrolidinyl}-4-chloro-1H-imidazol-5-yl)phenyl]carbamate bis(trifluoroacetate)] | > 100 µM | > 100 µM | 0.0099 µM
